Structures are written as SMILES.

For data set [1], the system named is HA+ (HIV-expressing) cells. The data set is classed as in vivo, humanized BLT mice. As to conditions: within 24 hours of activation, Ghost Red and Zombie Yellow.
Another data set has as its system U1 cells. Kind of data set: Activation of HIV from latency in U1 cell line (p24 ELISA). The data set is classed as cell-based. As to conditions: 48h. As to the method:
U1 cells (tested negative for bacteria, mold, yeast, and mycoplasma) were obtained through the AIDS Reagent Program, Division of AIDS, NIAID, NIH from Dr. Thomas Folks. Cells and compound were seeded in a final 200 μL volume of RF10 media at a cell density of 20,000 cells/well in v-bottomed 96 well plates and incubated at 37°C for 48 hours. After incubation, cells were pelleted and supernatant harvested then diluted in a 2% Triton-x-100/phosphate buffered saline solution. The concentration of HIV p24 protein in the culture supernatant was quantified using the HIV p24 antigen enzyme linked immunosorbent assay (ELISA) kit (Beckman Coulter) according to the manufacturer’s instructions.
On the technique in general: An ELISA detects its analyte on a solid surface through an enzyme-linked reagent.

The test system of another data set is C57/bl6 mice. In words: In vivo acute toxicity / tolerability in C57/bl6 mice. As to conditions: intraperitoneal injection, in some cases. As to the method: C57/bl6 mice were obtained from the UCLA Department of Radiation Oncology. Compounds were suspended in DMSO and then further diluted in RF10 media to produce a final volume of 500 μL (containing a maximum 4% DMSO). These 500 μL volumes were administered to mice by intraperitoneal injection. Mice were monitored for acute toxicities and then sacrificed at the indicated times. Spleens were removed and disaggregated using a steel mesh, and then filtered through a 40 μm filter to produce a single-cell suspension. The resultant splenocytes were then stained for flow cytometry to analyze surface expression of relevant markers.

The subject of data set [2] is human T cells in BLT mice. Kind of data set: Stimulation of human cells in uninfected humanized BLT mice (CD69, CD25). The data set is classed as in vivo. The conditions noted are these: spleen and blood, one day after stimulation.
A further data set relates to HIV strain NL-HA. In kind it is in vivo, humanized BLT mice. As to conditions: IP injection while maintaining ART, overnight incubation.
For another data set, the target named is T1, PKC eta (Homo sapiens, UniProt P24723).
T1 construct: purchased Invitrogen
In words: PKC binding assay, competition with 3H-PDBu. As to the method:
(§1) This entails a glass-fiber filtration method to determine bound radioligand.
(§2) To a polypropylene vial was added Tris-HCl (pH 7.4, 1 M, 1 mL), KCl (1 M, 2 mL), CaCl2 (0.1 M, 30 μL), and bovine serum albumin (40 mg, from Sigma). This mixture was diluted to 20 mL with deionized H2O, and mixed gently. The buffer was stored on ice until use. The final concentration of these constituents are shown in S2 Table.
(§3) For every 2 assays, 3.5 mg phosphatidylserine (Avanti Polar Lipids, porcine, obtained as a solution in CHCl3) was isolated by removing chloroform under a stream of nitrogen followed by reduced pressure. The solid PS was suspended as vesicles in binding assay buffer (3.5 mL) by sonicating (Branson Sonifier 250, power = 2, 50% duty cycle) six times for 30 s with a 30 s rest between sonications. The resulting cloudy mixture (1 mg/mL PS) was stored on ice until use.
(§4) Assay Protein Kinase C (PKC) was prepared by dissolving a 4 μg aliquot of the indicated recombinant human PKC isoform (Invitrogen) into 11.6 mL of binding assay buffer. The KD values for all 7 isoforms were determined experimentally. The diluted PKC was stored on ice for immediate use. This amount is sufficient for 2 assays with room for error.
(§5) This 500 nM stock solution was further diluted in DMSO to 30 nM for use in assays. The 500 nM and 30 nM stock solutions were stored frozen in DMSO at −20°C until use. […] Seven analog concentrations were used to define the inhibition curve.
(§6) The resulting solution was vortexed to mix and stored on ice.
(§7) Triplicate data points were obtained for each analog concentration. For each data point, 280 μL of Master Mix Solution and test compound at the given concentration (20 μL) were added to a polypropylene tube. […] Counts per minute (cpm) were averaged for each triplicate dilution.

For a further data set, the target named is T2, PKC delta (Homo sapiens, UniProt Q05655).
T2 construct: purchased Invitrogen
Kind of data set: PKC binding assay, competition with 3H-PDBu. As to the method:
as §1, §2, §3, §4, §5, §6, §7

A further data set has as its target T3, PKC alpha (Homo sapiens, UniProt P17252).
T3 construct: purchased Invitrogen
In words: PKC binding assay, competition with 3H-PDBu. As to the method: as §1, §2, §3, §4, §5, §6, §7

The next data set addresses T4, PKC epsilon (Homo sapiens, UniProt Q02156).
T4 construct: purchased Invitrogen
T4 sequence (Q02156 1-737): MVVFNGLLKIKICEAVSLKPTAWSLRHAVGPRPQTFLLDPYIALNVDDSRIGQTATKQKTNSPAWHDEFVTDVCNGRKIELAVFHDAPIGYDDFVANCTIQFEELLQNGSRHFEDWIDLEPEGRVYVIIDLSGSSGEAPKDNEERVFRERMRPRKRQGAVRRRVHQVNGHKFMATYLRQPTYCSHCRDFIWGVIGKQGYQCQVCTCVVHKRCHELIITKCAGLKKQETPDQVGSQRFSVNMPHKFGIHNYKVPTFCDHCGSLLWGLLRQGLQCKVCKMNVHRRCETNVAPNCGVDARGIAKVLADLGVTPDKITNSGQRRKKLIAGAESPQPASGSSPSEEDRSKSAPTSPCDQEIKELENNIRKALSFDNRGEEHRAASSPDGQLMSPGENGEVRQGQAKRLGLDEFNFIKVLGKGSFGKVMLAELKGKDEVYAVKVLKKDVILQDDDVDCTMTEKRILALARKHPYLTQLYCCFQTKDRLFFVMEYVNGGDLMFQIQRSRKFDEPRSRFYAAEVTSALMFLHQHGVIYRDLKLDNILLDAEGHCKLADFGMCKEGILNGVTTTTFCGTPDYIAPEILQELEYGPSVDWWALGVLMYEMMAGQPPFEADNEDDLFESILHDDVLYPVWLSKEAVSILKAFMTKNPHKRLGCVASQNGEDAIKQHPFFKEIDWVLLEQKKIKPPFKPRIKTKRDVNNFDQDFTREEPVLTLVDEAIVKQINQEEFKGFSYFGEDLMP
In words: PKC binding assay, competition with 3H-PDBu. As to the method:
as §1, §2, §3, §4, §5, §6, §7

For another data set, the target named is T5, PKC beta I (Homo sapiens, UniProt P05771).
T5 construct: purchased Invitrogen
Kind of data set: PKC binding assay, competition with 3H-PDBu. As to the method: as §1, §2, §3, §4, §5, §6, §7

The target in the next data set is T6, PKC gamma (Homo sapiens, UniProt P05129).
T6 construct: purchased Invitrogen
In words: PKC binding assay, competition with 3H-PDBu. As to the method: as §1, §2, §3, §4, §5, §6, §7

The next data set has as its target T7, PKC theta (Homo sapiens, UniProt Q04759).
T7 construct: purchased Invitrogen
Kind of data set: PKC binding assay, competition with 3H-PDBu. As to the method:
as §1, §2, §3, §4, §5, §6, §7

T5 sequence (P05771 whole entry): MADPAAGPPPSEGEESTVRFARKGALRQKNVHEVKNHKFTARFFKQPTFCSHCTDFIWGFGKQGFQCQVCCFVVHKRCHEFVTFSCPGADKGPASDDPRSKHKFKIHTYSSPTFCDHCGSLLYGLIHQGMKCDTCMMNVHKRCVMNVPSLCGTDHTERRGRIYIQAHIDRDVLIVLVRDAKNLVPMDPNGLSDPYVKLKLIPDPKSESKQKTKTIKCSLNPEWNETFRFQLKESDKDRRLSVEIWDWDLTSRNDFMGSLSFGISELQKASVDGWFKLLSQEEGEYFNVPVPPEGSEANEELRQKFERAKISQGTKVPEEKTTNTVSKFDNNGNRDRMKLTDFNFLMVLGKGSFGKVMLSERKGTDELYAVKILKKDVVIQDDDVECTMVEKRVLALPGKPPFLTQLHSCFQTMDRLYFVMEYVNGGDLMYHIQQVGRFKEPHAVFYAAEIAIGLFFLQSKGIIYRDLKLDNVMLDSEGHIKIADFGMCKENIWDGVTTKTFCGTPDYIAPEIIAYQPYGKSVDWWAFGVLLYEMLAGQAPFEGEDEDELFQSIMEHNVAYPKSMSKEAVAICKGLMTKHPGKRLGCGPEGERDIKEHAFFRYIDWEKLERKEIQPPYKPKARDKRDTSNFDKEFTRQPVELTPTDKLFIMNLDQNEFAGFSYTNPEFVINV
T1 sequence (P24723 whole entry): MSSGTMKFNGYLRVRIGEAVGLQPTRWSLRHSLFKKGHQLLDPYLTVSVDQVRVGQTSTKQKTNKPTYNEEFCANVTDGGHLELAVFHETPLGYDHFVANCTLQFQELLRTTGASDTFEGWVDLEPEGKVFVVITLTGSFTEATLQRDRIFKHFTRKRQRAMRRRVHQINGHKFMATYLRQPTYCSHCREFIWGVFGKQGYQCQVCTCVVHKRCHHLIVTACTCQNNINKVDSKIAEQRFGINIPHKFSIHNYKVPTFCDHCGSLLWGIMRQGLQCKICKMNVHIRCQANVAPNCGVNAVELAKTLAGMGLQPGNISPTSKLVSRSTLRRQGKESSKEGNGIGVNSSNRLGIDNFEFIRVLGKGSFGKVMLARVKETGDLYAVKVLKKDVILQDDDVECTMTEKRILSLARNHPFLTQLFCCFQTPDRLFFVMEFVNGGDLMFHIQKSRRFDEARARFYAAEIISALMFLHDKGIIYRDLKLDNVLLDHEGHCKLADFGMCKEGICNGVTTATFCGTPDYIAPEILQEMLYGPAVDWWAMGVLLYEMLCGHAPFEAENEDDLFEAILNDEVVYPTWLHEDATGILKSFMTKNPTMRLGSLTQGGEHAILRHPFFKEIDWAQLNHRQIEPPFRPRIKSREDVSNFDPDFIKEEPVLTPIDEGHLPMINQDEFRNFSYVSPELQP
T2 sequence (Q05655 whole entry): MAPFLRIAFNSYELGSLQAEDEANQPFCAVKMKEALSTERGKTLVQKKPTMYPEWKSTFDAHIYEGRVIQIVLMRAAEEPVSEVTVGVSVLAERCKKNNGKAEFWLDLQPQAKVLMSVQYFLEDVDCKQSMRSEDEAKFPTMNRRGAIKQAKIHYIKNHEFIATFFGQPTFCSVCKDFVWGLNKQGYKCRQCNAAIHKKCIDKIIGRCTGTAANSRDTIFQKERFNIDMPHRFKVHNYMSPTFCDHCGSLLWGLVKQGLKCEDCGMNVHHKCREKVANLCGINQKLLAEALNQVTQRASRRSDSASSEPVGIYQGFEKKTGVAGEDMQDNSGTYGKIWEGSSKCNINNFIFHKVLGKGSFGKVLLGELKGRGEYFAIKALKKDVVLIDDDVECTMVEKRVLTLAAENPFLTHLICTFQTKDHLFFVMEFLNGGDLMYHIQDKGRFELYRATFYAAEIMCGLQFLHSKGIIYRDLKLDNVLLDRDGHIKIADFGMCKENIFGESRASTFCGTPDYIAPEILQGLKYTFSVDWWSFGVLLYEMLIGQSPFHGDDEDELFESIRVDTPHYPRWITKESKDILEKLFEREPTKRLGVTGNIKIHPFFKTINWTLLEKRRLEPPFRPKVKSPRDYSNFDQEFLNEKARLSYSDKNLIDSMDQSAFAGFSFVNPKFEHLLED
T7 sequence (Q04759 whole entry): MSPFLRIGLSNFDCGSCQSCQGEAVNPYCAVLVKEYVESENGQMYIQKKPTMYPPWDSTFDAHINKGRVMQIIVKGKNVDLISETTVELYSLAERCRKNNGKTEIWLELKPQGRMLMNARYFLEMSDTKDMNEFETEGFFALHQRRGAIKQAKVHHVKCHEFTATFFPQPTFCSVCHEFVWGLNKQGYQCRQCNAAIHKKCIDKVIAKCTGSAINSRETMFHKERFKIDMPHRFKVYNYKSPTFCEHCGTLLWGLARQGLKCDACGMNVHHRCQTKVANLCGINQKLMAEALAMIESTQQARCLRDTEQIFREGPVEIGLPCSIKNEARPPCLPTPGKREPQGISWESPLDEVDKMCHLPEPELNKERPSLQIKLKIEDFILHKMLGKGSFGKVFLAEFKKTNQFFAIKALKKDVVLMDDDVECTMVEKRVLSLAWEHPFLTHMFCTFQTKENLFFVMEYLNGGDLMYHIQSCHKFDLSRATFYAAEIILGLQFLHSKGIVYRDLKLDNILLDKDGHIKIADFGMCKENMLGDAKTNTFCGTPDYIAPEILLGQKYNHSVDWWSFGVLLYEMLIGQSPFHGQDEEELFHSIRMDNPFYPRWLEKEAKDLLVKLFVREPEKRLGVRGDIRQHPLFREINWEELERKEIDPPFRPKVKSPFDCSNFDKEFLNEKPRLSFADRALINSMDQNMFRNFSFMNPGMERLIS

Regarding `C=C1C[C@H]2C[C@]3(O)O[C@H](C[C@@H](O)CC(=O)O[C@@H](CO)C[C@@H]4C/C(=C\C(=O)OC)[C@H](OC(=O)CCCCCCC)[C@@](O)(O4)C(C)(C)/C=C/[C@@H](C1)O2)C[C@H](OC(C)=O)C3(C)C` [SUW133], the “cells induced to express HIV that stained with cell death dyes” value in data set [1] was “up to 25%”. Further, in the data set with U1 cells, the “induction of latent virus (HIV p24 in supernatant)” value was “induced significant levels of latent virus”. The tolerated dose entry with C57/bl6 mice is recorded as “up to 30 μg per animal”. The “CD25 expression in human T cells” value in data set [2] is recorded as “limited CD25 expression”. In addition, in [2], the “CD69 expression in human T cells” value was “robust activation of CD69”. Also, the “percentage of HA+ (HIV-expressing) cells” value in the data set with HIV strain NL-HA is “induced significant numbers of latently-infected cells to express viral proteins”. Besides, the Ki – broadly, a dissociation constant, usually derived from enzyme kinetics or from competition with a known ligand – on PKC eta stood at 6.4 nM; on PKC delta, 2 nM; on PKC alpha, 1.8 nM; on PKC epsilon it was 5.8 nM; at PKC beta I it was 6.3 nM; at PKC gamma it was 5.6 nM. Also, the Ki at PKC theta worked out at 2 nM.

Values taken from PMC5608406, “In vivo activation of latent HIV with a synthetic bryostatin analog effects both latent cell "kick" and "kill" in strategy for virus eradication” (PLoS Pathogens, 2017).
